Experimental data taken from patent US8362000B2, “Azetidinyl diamides as monoacylglycerol lipase inhibitors” (Janssen Pharmaceutica NV, priority 2009, dated 2013).

Each compound was assayed against T1, mutant MGL (Homo sapiens, UniProt Q99685, L169S/L176S) (assay: MGL ThermoFluor assay - mutant). Settings: ThermoFluor concentration-response, read-out: MGL mutant ThermoFluor Kd.
T1 sequence (Q99685 1-303 L169S/L176S): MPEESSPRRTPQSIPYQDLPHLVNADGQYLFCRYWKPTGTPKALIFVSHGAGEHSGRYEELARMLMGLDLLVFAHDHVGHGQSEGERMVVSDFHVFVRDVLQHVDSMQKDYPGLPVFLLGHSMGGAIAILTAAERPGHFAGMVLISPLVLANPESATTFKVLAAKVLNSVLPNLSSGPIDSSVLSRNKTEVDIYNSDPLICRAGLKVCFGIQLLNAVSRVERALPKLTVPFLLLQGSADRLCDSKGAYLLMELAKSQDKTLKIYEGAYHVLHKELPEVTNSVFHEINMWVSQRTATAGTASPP
Format: binding

Compared with `O=C(c1cscn1)N1CCN(C2CN(C(=O)c3ccc(Br)cc3Cl)C2)CC1` [Cpd 25, 1-{1-[(4-Bromo-2-chlorophenyl)carbonyl]azetidin-3-yl}-4-(1,3-thiazol-4-ylcarbonyl)piperazine], `Cc1cc(Br)ccc1C(=O)N1CC(N2CCN(C(=O)c3ccccc3)CC2)C1` [Cpd 22, 1-{1-[(4-Bromo-2-methylphenyl)carbonyl]azetidin-3-yl}-4-(phenylcarbonyl)piperazine] is higher in Kd: 10 µM for the first, > 76.7 µM for the second. The first binds more tightly here.

First: CC(C)(C)OC(=O)N1CCC(c2ccccc2C(=O)N2CC(N3CCN(C(=O)c4ccccc4)CC3)C2)C1 (stereo not shown) [Cpd 111, tert-Butyl 3-[2-({3-[4-(phenylcarbonyl)piperazin-1-yl]azetidin-1-yl}carbonyl)phenyl]pyrrolidine-1-carboxylate]
Second: CC(C)(C)OC(=O)Nc1ccc(C(=O)N2CC(N3CCN(C(=O)c4ccccc4)CC3)C2)cc1 [Cpd 496, tert-Butyl [4-({3-[4-(phenylcarbonyl)piperazin-1-yl]azetidin-1-yl}carbonyl)phenyl]carbamate]
The Kd of the first is 35-fold higher: 10 µM for the first, 0.287 µM for the second.

Compared with `Cn1c2ccccc2c2cc(C(=O)N3CC(N4CCN(C(=O)c5ccccc5)CC4)C3)ccc21` [Cpd 51, 9-Methyl-3-({3-[4-(phenylcarbonyl)piperazin-1-yl]azetidin-1-yl}carbonyl)-9H-carbazole], `O=C(c1ccccc1)N1CCN(C2CN(C(=O)c3cccc(CNc4ccccc4F)c3)C2)CC1` [Cpd 561] is 2.2-fold higher in Kd: 0.25 µM for the first, 0.542 µM for the second.

Going from `O=C(c1ccccc1)N1CCN(C2CN(C(=O)c3ccc(N4CCOCC4)cc3)C2)CC1` [Cpd 541, 4-[4-({3-[4-(Phenylcarbonyl)piperazin-1-yl]azetidin-1-yl}carbonyl)phenyl]morpholine] to `CS(=O)(=O)c1ccc(C(=O)N2CC(N3CCN(C(=O)c4ccccc4)CC3)C2)cc1` [Cpd 472, 1-(1-{[4-(Methylsulfonyl)phenyl]carbonyl}azetidin-3-yl)-4-(phenylcarbonyl)piperazine], the Kd rises from 1.66 µM to 6.67 µM (4-fold). The first binds more tightly here.

Compared with `O=C(c1ccccc1)N1CCN(C2CN(C(=O)c3ccc(NC4CCC(F)(F)CC4)cc3)C2)CC1` [Cpd 530], `O=C(Nc1cccc(C(=O)N2CC(N3CCN(C(=O)c4ccccc4)CC3)C2)c1)C1CCCCC1` [Cpd 539, N-[3-({3-[4-(Phenylcarbonyl)piperazin-1-yl]azetidin-1-yl}carbonyl)phenyl]cyclohexanecarboxamide] is higher in Kd: 0.089 µM for the first, > 31.2 µM for the second. The first binds more tightly here.

Compared with `O=C(c1ccccc1)N1CCN(C2CN(C(=O)c3ccccc3NCc3ccccc3)C2)CC1` [Cpd 52, N-Benzyl-2-({3-[4-(phenylcarbonyl)piperazin-1-yl]azetidin-1-yl}carbonyl)aniline], `COc1cc(NCc2ccccc2)c(Cl)cc1C(=O)N1CC(N2CCN(C(=O)c3ccccc3)CC2)C1` [Cpd 529] is 11-fold lower in Kd: 3.33 µM for the first, 0.317 µM for the second. The second binds more tightly here.

First: O=C(c1ccccc1)N1CCN(C2CN(C(=O)c3ccc(Oc4ccccc4)cc3)C2)CC1 [Cpd 32, 1-{1-[(4-Phenoxyphenyl)carbonyl]azetidin-3-yl}-4-(phenylcarbonyl)piperazine]
Second: O=C(c1ccccc1)N1CCN(C2CN(C(=O)c3ccc(Oc4ccc(Br)cn4)cc3)C2)CC1 [Cpd 532]
The Kd of the first is 12-fold lower: 0.192 µM for the first, 2.33 µM for the second. The first binds more tightly here.

First: O=C(c1ccc(-c2ccccc2)cc1)N1CC(N2CCN(C(=O)c3nccs3)CC2c2ccccc2)C1 (stereo not shown) [Cpd 114]
Second: O=C(c1ccc(-c2ccccc2)cc1)N1CC(N2CCN(C(=O)c3ccc(Br)s3)CC2)C1 [Cpd 15, 1-[1-(Biphenyl-4-ylcarbonyl)azetidin-3-yl]-4-[(5-bromothiophen-2-yl)carbonyl]piperazine]
The Kd of the first is 86-fold lower: 0.00333 µM for the first, 0.286 µM for the second. The first binds more tightly here.

Compared with `O=C(c1cc(F)cc(Br)c1)N1CC(N2CCN(C(=O)c3nccs3)CC2)C1` [Cpd 912], `CC(=O)Oc1ccc(C(=O)N2CC(N3CCN(C(=O)c4nccs4)CC3)C2)cc1` [Cpd 471, 4-({3-[4-(1,3-Thiazol-2-ylcarbonyl)piperazin-1-yl]azetidin-1-yl}carbonyl)phenyl acetate] is 1.9-fold higher in Kd: 1.32 µM for the first, 2.5 µM for the second. The first binds more tightly here.

`O=C(c1ccccc1)N1CCN(C2CN(C(=O)c3ccc4c(ccn4-c4ncc(F)cn4)c3)C2)CC1` [Cpd 598, 1-(5-Fluoropyrimidin-2-yl)-5-({3-[4-(phenylcarbonyl)piperazin-1-yl]azetidin-1-yl}carbonyl)-1H-indole] and `CC(C)n1c(C(F)(F)F)nc2cc(C(=O)N3CC(N4CCN(C(=O)c5ccccc5)CC4)C3)ccc21` [Cpd 38, 1-(1-Methylethyl)-5-({3-[4-(phenylcarbonyl)piperazin-1-yl]azetidin-1-yl}carbonyl)-2-(trifluoromethyl)-1H-benzimidazole] are within 1.5-fold of each other in Kd: 0.249 µM for the first, 0.182 µM for the second.

First: O=C(c1ccccc1)N1CCN(C2CN(C(=O)c3ccc(NCc4ccc5ccccc5c4)cc3)C2)CC1 [Cpd 491, N-(Naphthalen-2-ylmethyl)-4-({3-[4-(phenylcarbonyl)piperazin-1-yl]azetidin-1-yl}carbonyl)aniline]
Second: O=C(c1ccccc1)N1CCN(C2CN(C(=O)c3cccn(Cc4cccc(Cl)c4)c3=O)C2)CC1 [Cpd 562, 1-(3-Chlorobenzyl)-3-({3-[4-(phenylcarbonyl)piperazin-1-yl]azetidin-1-yl}carbonyl)pyridin-2(1H)-one]
The Kd of the first is lower: 0.1 µM for the first, > 31.2 µM for the second.

Compared with `O=C(c1ccc(Oc2ccccn2)cc1)N1CC(N2CCN(C(=O)c3cscn3)CC2)C1` [Cpd 922], `Cc1nc(C(=O)N2CCN(C3CN(C(=O)c4ccc(-c5ccccc5)cc4)C3)CC2)cs1` [Cpd 10, 1-[1-(Biphenyl-4-ylcarbonyl)azetidin-3-yl]-4-[(2-methyl-1,3-thiazol-4-yl)carbonyl]piperazine] is 7-fold lower in Kd: 3.89 µM for the first, 0.556 µM for the second.

`O=C(c1ccccc1)N1CCN(C2CN(C(=O)C3CCC(c4ccccc4)CC3)C2)CC1` (stereo not shown) [Cpd 106, 1-(Phenylcarbonyl)-4-{1-[(4-phenylcyclohexyl)carbonyl]azetidin-3-yl}piperazine] and `Cc1nc(-c2ccc(Cl)cc2)sc1C(=O)N1CC(N2CCN(C(=O)c3ccccc3)CC2)C1` [Cpd 619] are within 1.5-fold of each other in Kd: 0.154 µM for the first, 0.172 µM for the second.

`O=C(c1ccc(CNc2cccc(Cl)c2)cc1)N1CC(N2CCN(C(=O)c3nccs3)CC2)C1` [Cpd 455] and `O=C(c1ccc(SCc2ccc(Cl)cc2)cc1)N1CC(N2CCN(C(=O)c3nccs3)CC2)C1` [Cpd 415] are within 1.5-fold of each other in Kd: 0.0085 µM for the first, 0.008 µM for the second.

`O=C(c1cnon1)N1CC(N2CCN(C(=O)c3cc4cc(C(F)(F)F)ccc4s3)CC2)C1` [Cpd 921, 1-[1-(1,2,5-Oxadiazol-3-ylcarbonyl)azetidin-3-yl]-4-{[5-(trifluoromethyl)-1-benzothiophen-2-yl]carbonyl}piperazine] and `O=C(c1cscn1)N1CCN(C2CN(C(=O)[C@@H]3C[C@H]3c3ccc(SC(F)(F)F)cc3)C2)CC1` (racemic) [Cpd 645, 1-(1,3-Thiazol-4-ylcarbonyl)-4-(1-{[(1RS,2RS)-2-{4-[(trifluoromethyl)sulfanyl]phenyl}cyclopropyl]carbonyl}azetidin-3-yl)piperazine] are within 1.5-fold of each other in Kd: 4.26 µM for the first, 5.44 µM for the second.

Compared with `O=C(c1ccc(SCc2ccc(Cl)c(Cl)c2)cc1)N1CC(N2CCN(C(=O)c3nccs3)CC2)C1` [Cpd 414, 1-[1-({4-[(3,4-Dichlorobenzyl)sulfanyl]phenyl}carbonyl)azetidin-3-yl]-4-(1,3-thiazol-2-ylcarbonyl)piperazine], `O=C(c1cscn1)N1CCN(C2CN(C(=O)C3CCC(C(F)(F)F)CC3)C2)CC1` (stereo not shown) [Cpd 644] is higher in Kd: 0.025 µM for the first, > 76.7 µM for the second.

Same assay, conditions: ThermoFluor thermal stability binding assay, read-out: MGL mutant ThermoFluor Kd

In order of rising Kd:
1. O=C(c1ccc(OCc2ccc(Cl)c(Cl)c2)c(Cl)c1)N1CC(N2CCN(C(=O)c3nccs3)CC2)C1 [Cpd 404]  0.0017 µM
2. O=C(c1ccc2c(c1)CCCN2c1cccc(C(F)(F)F)c1)N1CC(N2CCN(C(=O)c3nccs3)CC2)C1 [Cpd 374, 6-({3-[4-(1,3-Thiazol-2-ylcarbonyl)piperazin-1-yl]azetidin-1-yl}carbonyl)-1-[3-(trifluoromethyl)phenyl]-1,2,3,4-tetrahydroquinoline]  0.0022 µM
3. N#CC=Cc1cccc(-c2ccc(C(=O)N3CC(N4CCN(C(=O)c5nccs5)CC4)C3)cc2)c1 [Cpd 223, 3-[4′-({3-[4-(1,3-Thiazol-2-ylcarbonyl)piperazin-1-yl]azetidin-1-yl}carbonyl)biphenyl-3-yl]prop-2-enenitrile]  0.0067 µM
4. O=C(c1ccc2c(c1)CCCN2c1ccccc1)N1CC(N2CCN(C(=O)c3nccs3)CC2)C1 [Cpd 372, 1-Phenyl-6-({3-[4-(1,3-thiazol-2-ylcarbonyl)piperazin-1-yl]azetidin-1-yl}carbonyl)-1,2,3,4-tetrahydroquinoline]  0.0494 µM
5. N#Cc1csc(C(=O)N2CCN(C3CN(C(=O)c4ccc(-c5ccccc5)cc4)C3)CC2)c1 [Cpd 309]  0.253 µM
6. O=C(c1ccccc1)N1CCN(C2CN(C(=O)c3ccc(OCc4ccc5ccccc5n4)cc3)C2)CC1 [Cpd 560]  0.652 µM
7. O=C(/C=C/c1ccccc1Cl)N1CC(N2CCN(C(=O)c3nccs3)CC2)C1 [Cpd 295, 1-{1-[(2E)-3-(2-Chlorophenyl)prop-2-enoyl]azetidin-3-yl}-4-(1,3-thiazol-2-ylcarbonyl)piperazine]  0.833 µM
8. O=C(c1ccc(OCc2cncc(Cl)c2)cc1)N1CC(N2CCN(C(=O)c3cscn3)CC2)C1 [Cpd 981]  0.937 µM
9. O=C(c1ccc(-c2ccccc2)cc1)N1CC(N2CCN(C(=O)c3cnon3)CC2)C1 [Cpd 308]  10 µM

Same assay, conditions: ThermoFluor, compound concentration measured by qNMR, read-out: MGL mutant ThermoFluor qKd (using qNMR conc.)

Compound `Cc1ccnc(-n2ccc3cc(C(=O)N4CC(N5CCN(C(=O)C(F)(F)F)CC5)C4)ccc32)c1` [Cpd 1199, 1-(4-Methylpyridin-2-yl)-5-({3-[4-(trifluoroacetyl)piperazin-1-yl]azetidin-1-yl}carbonyl)-1H-indole] has a Kd of 0.264 µM.

Same assay, conditions: ThermoFluor, compound concentration measured by qNMR, read-out: MGL mutant ThermoFluor qKd (μM) (using qNMR conc.)

For `Cc1cc(-n2ccc3cc(C(=O)N4CC(N5CCN(C(=O)c6cscn6)CC5)C4)ccc32)ccc1C#N` [Cpd 1421, 2-Methyl-4-[5-({3-[4-(1,3-thiazol-4-ylcarbonyl)piperazin-1-yl]azetidin-1-yl}carbonyl)-1H-indol-1-yl]benzonitrile], the Kd was 0.044 µM.
